Experiments:
[1] = biological target: T1, ATP Dependent Citrate Lyase (Mus musculus, UniProt Q91V92); assay: In vivo liver enzyme study: ATP dependent citrate lyase; conditions: CF1 liver after 16 days i.p.
T1 construct: 10% homogenates of CF1 male mouse liver; from tissue; host or cells: CF1 male mouse liver, 10% homogenate
T1 sequence (Q91V92 1-1091): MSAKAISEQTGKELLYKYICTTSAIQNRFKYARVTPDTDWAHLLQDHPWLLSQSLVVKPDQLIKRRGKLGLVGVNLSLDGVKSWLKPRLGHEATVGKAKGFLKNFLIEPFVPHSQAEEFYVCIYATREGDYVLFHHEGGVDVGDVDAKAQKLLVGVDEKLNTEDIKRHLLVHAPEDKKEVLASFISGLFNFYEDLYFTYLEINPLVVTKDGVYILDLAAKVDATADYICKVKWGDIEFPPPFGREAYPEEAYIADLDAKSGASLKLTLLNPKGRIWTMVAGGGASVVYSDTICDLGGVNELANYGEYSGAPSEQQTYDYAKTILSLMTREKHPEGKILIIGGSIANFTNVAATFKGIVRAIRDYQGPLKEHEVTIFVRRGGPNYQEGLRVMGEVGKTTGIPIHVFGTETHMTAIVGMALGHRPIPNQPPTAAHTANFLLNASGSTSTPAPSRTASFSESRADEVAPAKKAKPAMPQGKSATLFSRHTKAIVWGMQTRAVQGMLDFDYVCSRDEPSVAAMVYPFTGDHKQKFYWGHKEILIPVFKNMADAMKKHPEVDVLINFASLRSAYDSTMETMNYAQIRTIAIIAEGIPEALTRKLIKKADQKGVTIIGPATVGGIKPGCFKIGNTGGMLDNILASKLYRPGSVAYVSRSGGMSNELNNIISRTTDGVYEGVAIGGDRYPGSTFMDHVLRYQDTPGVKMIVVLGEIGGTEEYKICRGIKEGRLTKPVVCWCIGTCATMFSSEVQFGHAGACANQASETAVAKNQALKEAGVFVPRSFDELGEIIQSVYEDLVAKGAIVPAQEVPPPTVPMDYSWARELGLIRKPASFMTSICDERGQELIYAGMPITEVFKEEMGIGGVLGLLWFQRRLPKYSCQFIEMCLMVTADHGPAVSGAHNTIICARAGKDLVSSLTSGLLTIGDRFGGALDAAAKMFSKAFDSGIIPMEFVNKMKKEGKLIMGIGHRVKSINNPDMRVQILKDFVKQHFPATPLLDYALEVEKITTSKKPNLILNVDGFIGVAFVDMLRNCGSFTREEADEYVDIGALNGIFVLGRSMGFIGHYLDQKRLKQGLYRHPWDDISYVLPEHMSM
Experimental: (§1) In vitro enzymatic studies were determined using 10% homogenates of CF1 male mouse liver with 50-200 μM of test drugs. In vivo enzymatic studies were determined using 10% homogenates of liver from CF1 male mice obtained after administering the agents for 16 days at a dose ranging from 2.5-20 mg/kg/day intraperitoneally. The liver homogenates for both in vitro and in vivo studies were prepared in 0.25M sucrose and 0.001M (ethylenedinitrilo)tetraacetic acid. Acetyl coenzyme A synthetase and adenosine triphosphate dependent citrate lyase activities were determined spectrophotometrically at 540 nm as the hydroxylamate of acetyl coenzyme A formed after 30 min at 37° C. Mitochondrial citrate exchange was determined by the procedure of Robinson et al [Eur. J. Biochem., 216, 63 (1970)] using ^14 C-sodium bicarbonate (41 mCi/mmol) incorporated into mitochondrial ^14 C-citrate after isolating rat mitochondria (9000 g×10 min) from the homogenates. The exchanges of the ^14 C-citrate were determined after incubating the mitochondrial fraction which was loaded with labeled citrate and test drugs for 10 min. Then the radioactivity was measured in the mitochondrial and supernantant fractions in scintillation fluid and expressed as a percentage. Cholesterol side chain oxidation was determined by the method of Kritchevsky and Tepper [Artherosclerosis, 18, 93 (1973)] using (26-^14 C) cholesterol (50 mCi/mmol) and mitochondria isolated from rat liver homogenates. […] Fatty acid synthetase activity was determined by the method of Brady et al [J. Biol. Chem., 235, 3093 (1960)] using [2-^14 C] malonyl-coenzyme A (37.5 mCi/mmol) which was incorporated into newly synthesized fatty acids that were extracted with ether and counted. Acyl transferase activity was determined with glycerol-3phosphate [L-2-^3 H(N)] […] HCl and counted. Phosphatidate phosphohydrolase activity was measured as the inorganic phosphate released after 30 min from phosphatidic acid by the method of Mavis et al [J. Lipid Res., 19, 467 (1978)]. […]

[2] = biological target: T1, ATP Dependent Citrate Lyase; assay: In vitro liver enzyme study: ATP dependent citrate lyase; assay type: biochemical; conditions: in vitro CF1 liver, 30 min
Experimental: as §1

[3] = test system: Mitochondrial Citrate Exchange; assay: In vitro liver enzyme study: mitochondrial citrate exchange; assay type: biochemical, mouse; conditions: in vitro CF1 liver, 10 min
Experimental: as §1

{Cu[(CH3)3 N.BH2 CO2 ]2.(CH3)3 N.BH2 COOH} [Compound I]
ATP Dependent Citrate Lyase ([1]; 2.5 mg/kg): 70 ± 6% of control | ATP Dependent Citrate Lyase ([1]; 5.0 mg/kg): 79 ± 7% of control | ATP Dependent Citrate Lyase ([1]; 10 mg/kg): 72 ± 7% of control | ATP Dependent Citrate Lyase ([2]; 50 μM): 110 ± 6 Percent Control | ATP Dependent Citrate Lyase ([2]; 100 μM): 98 ± 5 Percent Control | ATP Dependent Citrate Lyase ([2]; 200 μM): 105 ± 7 Percent Control | Mitochondrial Citrate Exchange ([3]; 50 μM): 105 ± 6 Percent Control | Mitochondrial Citrate Exchange ([3]; 100 μM): 104 ± 6 Percent Control | Mitochondrial Citrate Exchange ([3]; 200 μM): 103 ± 7 Percent Control
